Test results from patent US12473295B2, “Substituted straight chain spiro derivatives” (Janssen Pharmaceutica NV, priority 2019, dated 2025).
Counter-ions that a name gives are not always drawn. Like-named read-outs stand apart in the source and are kept apart here.

Key:
KO-52 cells = assay: Proliferation assay (spheroid growth, 8 days), KO-52 control cell line; format: cell-based, human; details: read-out: spheroid assay_OneTime KO-52 IC50
In short: (§1)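 Cells were seeded at 200 (MOLM14, OCI-AML3) or 300 (KO-52) per well in ultra-low attachment round-bottom plates with compounds at several concentrations, 0.3% DMSO, and grown 8 days at 37° C. Spheroid confluence was imaged on day 8; IC50 came from a variable-slope fit normalized to DMSO and high-dose reference compound.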

[1] = target: menin/MLL (terbium chelate-labeled menin, FITC-MBM1 peptide) (Homo sapiens (Human), UniProt O00255); assay: Menin/MLL homogenous time-resolved fluorescence (HTRF) assay; format: binding;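 further: IC50 from percent inhibition of HTRF signal, normalized between wells without competitor and wells with a saturating competitor that displaces FITC-MBM1 from His-tagged menin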
Chain of menin/MLL (terbium chelate-labeled menin, FITC-MBM1 peptide) (O00255 other isoform, or with tags, fused parts or gaps): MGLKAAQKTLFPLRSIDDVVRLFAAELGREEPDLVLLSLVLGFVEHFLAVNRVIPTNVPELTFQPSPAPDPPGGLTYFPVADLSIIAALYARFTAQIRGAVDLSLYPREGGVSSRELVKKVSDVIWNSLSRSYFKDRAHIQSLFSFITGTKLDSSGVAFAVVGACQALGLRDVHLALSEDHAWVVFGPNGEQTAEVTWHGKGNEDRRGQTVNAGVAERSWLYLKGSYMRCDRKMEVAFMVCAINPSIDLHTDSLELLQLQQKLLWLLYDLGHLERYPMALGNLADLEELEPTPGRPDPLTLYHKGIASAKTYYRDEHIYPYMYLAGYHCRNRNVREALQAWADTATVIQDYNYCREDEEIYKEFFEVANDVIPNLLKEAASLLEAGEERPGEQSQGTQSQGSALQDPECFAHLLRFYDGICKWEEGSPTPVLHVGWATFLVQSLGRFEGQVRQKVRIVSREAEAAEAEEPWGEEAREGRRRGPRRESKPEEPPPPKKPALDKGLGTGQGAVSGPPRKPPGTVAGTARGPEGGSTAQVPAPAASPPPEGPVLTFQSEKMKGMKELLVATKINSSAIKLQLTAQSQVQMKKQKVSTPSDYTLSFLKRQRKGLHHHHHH

OCI-AML3 cells = assay: Proliferation assay (spheroid growth, 8 days), OCI-AML3; format: cell-based, human; details: OCI-AML3, 8 days
In short: as §1

[2] = Metabolic stability in mouse liver microsomes; format: in vitro ADME; details: mouse liver microsomes 0.5 mg/mL, 1 μM test compound, pH 7.4; for microsomal CLint at 1 μM: read-out: Mouse LM Clint
Procedure: (§2) 4) Metabolic Stability in Human/Mouse Liver Microsomes
(§3) The objective of this study is to measure in vitro metabolic stability of test compound(s) in human and mouse liver microsomes and provide quantitative information on the rate of metabolic turnover (i.e. determination of the apparent intrinsic clearance of test).
(§4) Test items were prepared at a stock concentration of 10 mM in DMSO. For determination of metabolic turnover, a final working solution was prepared by adding 2 μL of 10 mM DMSO stock solution for test compound or positive control compounds to 198 μL of acetonitrile (100 μM final concentration).
(§5) Incubations were performed as follows: First, liver microsomes were thawed on ice and a master solution containing liver microsomes in 100 mM PBS (phosphate-buffered saline) at pH 7.4 is prepared. Next, the liver microsomes solution was added to the incubation plates and 10 mM NADPH (Nicotinamide-adenine dinucleotide phosphate) was added (MW: 833.4 g/mol; Roche Diagnostics GmbH, Germany. Dissolved in phosphate buffer (100 mmol/L, pH 7.4)). The mixture was mixed for 10 seconds and pre-warmed in the incubation plate at 37° C. for 10 minutes. The metabolic reaction was initiated with the addition of 5 μL of the 100 μM working solution for test compound or positive control compounds to incubation plate (final test item concentration=1 μM). The reaction final mixture should contain 1 mM NADPH, 0.5 mg/mL microsomes protein and 1 μM test compound or positive control compound in 100 mM PBS at pH 7.4. The percentage of organic solvent in incubation mixture is 1% with DMSO ≤0.02%.
(§6) The reaction was quenched by transferring 50 μL of the incubated mixture at selected time points into the quenching plate containing 200 μL of cold methanol. After sampling of all the timepoints the quenching plate was centrifuged at 4000 rpm for 40 minutes to precipitate protein. A total of 90 μL of the supernatant was transferred to an analysis plate and ultra-pure H2O water is added into each well for LC/MS/MS analysis. All incubations and analysis were performed in duplicate.
(§7) All calculations were carried out using Microsoft Excel. The slope value, k, was determined by linear regression of the natural logarithm of the remaining percentage of the parent drug vs. incubation time curve.
(§8) The in vitro half-life (in vitro tin) was determined from the slope value: in vitro t1/2=−(0.693/k)
(§9) Conversion of the in vitro tin (in min) into the in vitro intrinsic clearance (in vitro CLint, in μL/min/mg proteins) was done using the following equation: […]

[3] = Metabolic stability in human liver microsomes; format: in vitro ADME; details: human liver microsomes 0.5 mg/mL, 1 μM test compound, pH 7.4; for microsomal CLint at 1 μM: read-out: Human LM Clint
Procedure: as §2, §3, §4, §5, §6, §7, §8, §9

MOLM14 cells = assay: Proliferation assay (spheroid growth, 8 days), MOLM14; format: cell-based, human; details: MOLM14, 8 days, read-out: spheroid assay_OneTime MOLM14 IC50;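 further: spheroid size read as confluence by live-cell imaging, compounds added at a range of concentrations with 0.3% DMSO, DMSO-treated wells = 0%, highest reference dose = low control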
MEIS1 mRNA = MEIS1 mRNA expression assay (Quantigene Singleplex) in MOLM14 cells; format: cell-based, human; details: 48 hours incubation;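 further: MEIS1 transcript levels read by probe hybridization and normalized to RPL28 mRNA, with IC50 fitted to fold changes across a rising compound concentration series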
hERG potassium channel = hERG potassium channel (Homo sapiens (Human), UniProt Q12809); assay: Effect on membrane potassium current IKr in hERG transfected CHO cells, Protocol 1 (QPatch); format: cell-based
Chain of hERG potassium channel (Q12809 whole entry): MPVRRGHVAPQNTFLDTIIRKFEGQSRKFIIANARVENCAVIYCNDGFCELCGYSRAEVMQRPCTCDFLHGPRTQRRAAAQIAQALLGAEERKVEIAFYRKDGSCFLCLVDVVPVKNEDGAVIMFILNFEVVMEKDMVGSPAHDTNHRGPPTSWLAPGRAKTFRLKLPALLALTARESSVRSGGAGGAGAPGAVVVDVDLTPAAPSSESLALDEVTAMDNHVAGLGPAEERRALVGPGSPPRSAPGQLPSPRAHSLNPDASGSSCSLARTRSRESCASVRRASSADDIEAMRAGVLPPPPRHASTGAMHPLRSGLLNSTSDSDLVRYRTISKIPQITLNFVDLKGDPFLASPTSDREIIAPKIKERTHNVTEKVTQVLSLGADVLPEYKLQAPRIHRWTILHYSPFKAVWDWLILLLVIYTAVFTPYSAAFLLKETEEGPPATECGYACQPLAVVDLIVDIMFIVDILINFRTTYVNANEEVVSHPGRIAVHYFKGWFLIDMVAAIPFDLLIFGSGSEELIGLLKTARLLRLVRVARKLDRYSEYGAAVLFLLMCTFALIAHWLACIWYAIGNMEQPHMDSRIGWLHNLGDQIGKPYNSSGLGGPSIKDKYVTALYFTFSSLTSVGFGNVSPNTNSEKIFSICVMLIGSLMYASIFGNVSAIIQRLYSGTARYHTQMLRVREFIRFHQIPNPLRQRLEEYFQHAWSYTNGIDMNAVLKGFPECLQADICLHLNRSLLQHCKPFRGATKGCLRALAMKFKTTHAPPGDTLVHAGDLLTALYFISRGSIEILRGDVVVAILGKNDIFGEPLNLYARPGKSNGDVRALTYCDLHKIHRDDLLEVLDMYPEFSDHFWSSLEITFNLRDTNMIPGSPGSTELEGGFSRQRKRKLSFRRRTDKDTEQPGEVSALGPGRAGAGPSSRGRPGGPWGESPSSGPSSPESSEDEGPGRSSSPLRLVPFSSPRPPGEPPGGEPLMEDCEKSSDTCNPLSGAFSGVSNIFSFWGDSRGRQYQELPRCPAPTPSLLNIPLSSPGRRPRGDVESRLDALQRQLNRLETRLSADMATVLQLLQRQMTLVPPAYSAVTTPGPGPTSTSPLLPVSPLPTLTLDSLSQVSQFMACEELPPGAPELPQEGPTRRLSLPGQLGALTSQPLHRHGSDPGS
In short: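 Whole-cell automated patch clamp on CHO cells stably expressing hERG, held at −80 mV; the value is the tail current at −40 mV after a 2 s step to +60 mV, at pH 7.4 bath and pH 7.2 pipette. After 0.3% DMSO control, compound was applied at 3×10^−7 M, 3×10^−6 M, 10^−5 M and 3×10^−5 M, 5 min each. IC50 comes from a non-linear least-squares fit of block versus vehicle.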

hERG = hERG (Homo sapiens (Human), UniProt Q12809); assay: Effect on membrane potassium current IKr in hERG-transfected HEK293 cells, Protocol 2 (SyncroPatch 384PE); format: cell-based; details: Protocol 2, hERG-transfected HEK293 cells
Chain of hERG (Q12809 whole entry): as above
Procedure: 8) Effect on the Membrane Potassium Current IKr in hERG Transfected Cell Lines
The compound, vehicle control and positive control were tested on hERG-transfected HEK293 cells. A human embryonic kidney cell line (HEK293) with a stable transfection of hERG (Zhou Z et al. Biophysical Journal 1998. 74, 230-241; McDonald T. V. et al, Nature 1997. 388, 289-292) was used (University of Wisconsin, Madison, USA). The cells were kept in culture in MEM (Minimum Essential Medium, Gibco) which was supplemented with (amounts indicated added to 500 ml MEM): 5 ml L-Glutamine-Penicillin-Streptomycin (Sigma), 50 ml Fetal Bovine serum (Bio-Whittaker), 5 ml Non-essential Amino Acids 100× (Gibco), 5 ml sodium pyruvate 100 mM (Gibco) and 4 ml geneticin 50 mg/ml (Gibco) using T175 flasks. The cells were incubated at 37° C. in 5% CO2 atmosphere (in air).
Cell Harvesting for Assay
Cells were harvested as described below using Accumax™ (Sigma) as the dissociating reagent. Cells were then resuspended in a mixture of 33% DMEM/F12 (Dulbecco's Modified Eagle Medium/Nutrient Mixture F-12—Sigma) media/67% extracellular physiological solution.
The flasks were washed twice carefully with ˜5-10 ml phosphate buffered saline (PBS) (Gibco™) containing 2 mM EDTA (Ethylenediaminetetraacetic acid) (Sigma). The cells were dissociated using ˜3 ml of Accumax™ (cell detachment solution) and incubated for ˜5 to 10 min. at 37° C. Cold external physiological solution (2-5 ml) was added and the flasks are incubated at ˜4° C. for 5-10 min. Then, the cell suspension in each flask was gently dissociated with a 5 ml pipette. The cell suspension was transferred to a low binding petri-dish (˜[…]). Each flask was washed with ˜additional 5 ml cold external physiological solution and this solution was also added to the petri-dish. The petri-dish was then incubated for another 5 to 10 minutes at ˜4° C. After another gentle dissociation of the cell suspension in the petri dish, the cells were transferred to a reservoir kept on an orbital shaker at 200 rpm at 16° C. Before experiments were performed, the cells recovered for ˜20 min.
A 10 mM solution of the compound was used and plated in a 384 well plate. Aliquots of the stock solutions are diluted with the recording solution (see section 3) using automated liquid handling (Biomek FXP; final DMSO concentration: 0.03 to 0.3%). A standard range of screening concentrations was used ranging from 1 μM to 30 μM.
A positive control (E-4031) was included within each run to evaluate the sensitivity of the assay.
External and Intracellular Solutions Used in the Experiments
In the table below the composition of the intracellular and external buffer solutions is shown in [mM] (“NMDG” means N-methyl-D-glucamine)
The whole cell patch clamp technique on transfected cells allows the study of ion-channels with no—or limited interference from other ion-channels. The effects of the compounds on the hERG current were studied with an automated planar patch clamp system, SyncroPatch 384PE (Obergrussberger et al, Journal of Laboratory Automation 2016. 21 (6). 779-793). All cells were recorded in the whole cell mode of the patch clamp technique. The module is incorporated in a liquid handling pipetting robot system, Biomek FXP, for application of cells and compounds, vehicle control and positive control.
The different concentrations of the compounds were applied in two cumulatively increasing concentrations for the compounds (1 μM and 10 μM, and 3 μM and 30 μM, respectively). The hERG current was determined as the maximal tail current at −30 mV and percent inhibition upon compound or vehicle and positive control addition was reported.
After cells are caught onto the individual holes of the recording chips using the chip fill solution, the seal is increased with the seal enhancer solution (increased [Ca^2+]; then the cells were washed twice with recording solution before using a pressure protocol to go into the whole cell mode. […]

[4] = Mouse PK (in vivo T1/2 and oral bioavailability); details: fasted male CD-1 mice, formulating agent HP-β-CD
Procedure: 3) Mouse PK (In Vivo T1/2 and Oral Bioavailability)
In vivo pharmacokinetics (PK) were assessed in fasted male CD-1 mice (age 6-8 weeks) following a single intravenous (IV, 0.5 or 1.0 mg/kg administered at 2.5 ml/kg) or oral (PO, 5 mg/kg administered at 10 ml solution/kg) dose of test article formulated in a 20% (w:vol) HP-β-CD solution or in Pyrogen free water.
Plasma and/or whole blood samples were collected from the dorsal metatarsal vein at desired timepoints via serial capillary microsampling (approx. 0.03 mL) using EDTA as an anticoagulant. Concentrations of compound in the plasma and blood samples were analyzed using a qualified LC-MS/MS method. In silico analysis of main pharmacokinetic parameters was performed using WinNonlin (Phoenix™, version 6.1) or similar software. (Results see Table 4)

[5] = HTRF-30 min incubation IC50, 30 min incubation
[6] = read-out: HTRF-30 min incubation IC50, 30 min incubation

Compound | IC50 (KO-52 cells; Homo sapiens, […]) [nM] | IC50 [1, 5] [nM] | IC50 (OCI-AML3 cells; Homo sapiens, OCI-AML-3, […]) [nM] | microsomal CLint at 1 μM [2] [µL/min/mg] | microsomal CLint at 1 μM [3] [µL/min/mg] | IC50 (MOLM14 cells; Homo sapiens, MOLM-14, […]) [nM] | IC50 (MEIS1 mRNA; Homo sapiens, MOLM-14, 48 h) [nM] | IC50 (hERG potassium channel) [nM] | IC50 (hERG) [nM] | IC50 (KO-52 cells) [nM] | IC50 [1, 6] [nM] | IC50 (OCI-AML3 cells) [nM] | Mouse LM Clint [2] [µL/min/mg] | Human LM Clint [3] [µL/min/mg] | IC50 (MOLM14 cells) [nM] | IC50 (MEIS1 mRNA) [nM] | half-life ([4]; single IV 0.5 or 1.0 mg/kg) [h] | bioavailability ([4]; single PO 5 mg/kg) [%]
CC(C)[C@@H](CCCN(C)C)N1CC2(CCN(c3ncnnc3Oc3ccc(F)cc3C(=O)N(C(C)C)C(C)C)C2)C1 (single isomer, unassigned) [Compound 396, (*R)-2-((5-(2-(6-(dimethylamino)-2-methylhexan-3-yl)-2,6-diazaspiro[3.4]octan-6-yl)-1,2,4-triazin-6-yl)oxy)-5-fluoro-N,N-diisopropylbenzamide oxalate] | 8510 | 0.08 | 140 | < 7.5 | 22 | 23 | 17 | > 30200 | – | – | – | – | – | – | – | – | – | –
O=C(O)/C=C/C(=O)O.[2H]C([2H])(COC)N(C)CCC[C@H](C(C)C)N1CC2(CCN(c3ncnnc3Oc3ccc(F)cc3C(=O)N(CC)C(C)C)C2)C1 [Compound 233, (R)-N-ethyl-5-fluoro-N-isopropyl-2-((5-(2-(6-((2-methoxyethyl-1,1-d2)(methyl)amino)-2-methylhexan-3-yl)-2,6-diazaspiro[3.4]octan-6-yl)-1,2,4-triazin-6-yl)oxy)benzamide fumarate] | 5030 | – | 150 | – | – | 26 | – | – | > 30200 | – | – | – | – | – | – | – | – | –
CCN(C(=O)c1cc(F)ccc1Oc1nncnc1N1CCC2(C1)CN([C@H](CCCO)C(C)C)C2)C(C)C (single isomer, unassigned) [Compound 47, (*R)—N-ethyl-5-fluoro-2-((5-(2-(6-hydroxy-2-methylhexan-3-yl)-2,6-diazaspiro[3.4]octan-6-yl)-1,2,4-triazin-6-yl)oxy)-N-isopropylbenzamide] | – | – | – | – | – | – | – | > 30200 | – | 10800 | 0.31 | 600 | 47 | 38 | 220 | 140 | – | –
CCN(C)C[C@H](O)C[C@H](C(C)C)N1CC2(CCN(c3ncnnc3Oc3ccc(F)cc3C(=O)N(CC)C(C)C)C2)C1.O=C(O)/C=C/C(=O)O (single isomer, unassigned) [Compound 346, N-ethyl-2-((5-(2-((3*R,5R)-6-(ethyl(methyl)amino)-5-hydroxy-2-methylhexan-3-yl)-2,6-diazaspiro[3.4]octan-6-yl)-1,2,4-triazin-6-yl)oxy)-5-fluoro-N-isopropylbenzamide fumarate] | > 15000 | 0.058 | 130 | < 7.5 | 11 | 36 | 33 | – | – | – | – | – | – | – | – | – | 5.2 | 5.1
CCN(C(=O)c1cc(F)ccc1Oc1nncnc1N1CCC2(C1)CN([C@H](CCCN(C)CCC#N)C(C)C)C2)C(C)C [Compound 13] | > 15000 | 0.4 | 210 | 44 | 75 | 61 | 77 | 25700 | – | – | – | – | – | – | – | – | – | –
CNC(=O)CC[C@@H](C(C)C)N1CC2(CCN(c3ncnnc3Oc3ccc(F)cc3-c3cncnc3C3CC3)C2)C1 (single isomer, unassigned) [Compound 45, (*S)-4-(6-(6-(2-(4-cyclopropylpyrimidin-5-yl)-4-fluorophenoxy)-1,2,4-triazin-5-yl)-2,6-diazaspiro[3.4]octan-2-yl)-N,5-dimethylhexanamide] | – | – | – | – | – | – | – | 12600 | – | > 15000 | 0.37 | 1250 | 110 | 43 | 220 | 210 | – | –
